Data on one molecule can be found in patent publication US10548999B2, “Method and apparatus for sterilizing preform” (DAI NIPPON PRINTING CO., LTD., priority 2012, dated 2020).

Where two headings read alike, the source gives them in different places.

The conditions of series [1]: preform molded into a bottle and filled with water. As to the method: (§1) Mist of hydrogen peroxide water was produced by supplying hydrogen peroxide water of 35% concentration and pressurized air to a two-fluid spray, the thus produced mist was mixed with hot air having temperature of 60° C., and then, the mist of the hydrogen peroxide water was sprayed inside a chamber through a nozzle. The chamber is a box-shaped member, having no bottom, having a size of 1,000 mm width, 1,500 mm length and 200 mm height, and the box-shaped chamber was set to a predetermined position on the conveyer having 600 mm width. Preforms of the number of 860 bottles/min., each being formed into a bottle of […], were supplied to the conveyer, which is driven at a speed of 0.2/sec.

For series [2], the system named is BaciLLus subtiLis. The conditions noted are these: 35% hydrogen peroxide water mist mixed with 60° C. hot air, about 50 mg per preform. On the procedure: as §1
The test system of series [3] is AspergiLLus niger. To be noted: then superheated steam 300° C. 5 sec. to inner surface. As to the method:
(§2) Mist of hydrogen peroxide water was produced by supplying hydrogen peroxide water of 35% concentration and pressurized air to a two-fluid spray, the thus produced mist was mixed with hot air having temperature of 60° C., and then, the mist of the hydrogen peroxide water was sprayed inside a chamber through a nozzle. The chamber has a size of 600 mm width, and a conveyer has 1.5 m length. Preforms, each being formed into a bottle of […], were supplied to the conveyer by the number of 860 bottles/min., and the conveyer was driven at a speed of 0.2/sec. […] Furthermore, preforms, each being formed into a bottle of […], were supplied by the number of 250 bottles/min., and the same operation was performed. […] Such preforms were subjected to the following treatment.
(§3) Superheated steam of flow amount of 0.7 g/sec. generated by heating water by a superheated steam generator of induction heating system was sprayed to each inner surface of the preform from a nozzle having inner diameter of 8 mm at blasting temperature of 300° C. for 5 sec.
(§4) In the above Table 1, term “B” is an abbreviated term of “BaciLLus subtiLis”, and “A.nig.” is an abbreviated term of “AspergiLLus niger”. “D” is a D-valve indicating the sterilizing effect.

Series [4] relates to BaciLLus subtiLis. To be noted: then superheated steam 300° C. 5 sec. to inner surface. As to the method: as §2, §3, §4
Series [5] relates to BaciLLus subtiLis. As to the method:
The hydrogen peroxide water adhered to each preform having inner volume of 500 ml for bottle as in the first example 1. Furthermore, superheated steam of flow amount of 0.7 g/sec. generated by heating water by a superheated steam generator of an induction heating system was sprayed to the inner surface of each preform from a nozzle having inner diameter of 8 mm at blasting temperature in a range of 180 to 550° C. for 10 to 3 sec.
Further, it is to be noted that, in the above Table 3, the sterilization effect is shown with [∘] (good) in the case where the D-value with respect to BaciLLus subtiLis is not less than 6, and the other cases are shown with [x] (not good). With respect to the deformation of the inner diameter, in the case where the inner diameter of the preform is deformed by less than 0.05 mm is shown [∘] (good), and the other cases are shown with [x] (not good).

Series [6] has as its system AspergiLLus niger. As to the method: (§5) The first chamber 5a and the second chamber 6a have size of 1000 mm width, and 1500 mm length, and 200 mm height, respectively. Preforms, each being formed into a bottle of 500 ml, were supplied to the conveyer by the number of 860 bottles/min., and the conveyer was driven at a predetermined speed.
(§6) In the above Table 4, term “B” is an abbreviated term of “BaciLLus subtiLis”, and “A.nig.” is an abbreviated term of “AspergiLLus niger”. “D” is a D-valve indicating the sterilization effect.

Series [7] concerns BaciLLus subtiLis. As to the method: as §5, §6
This is another data set of the same source.

Setting [8] is: preform for 2 L, 35% mist about 150 mg.
The mark [9] stands for this setting: preform for 500 mL, 35% mist about 50 mg.
[10] abbreviates: hydrogen peroxide 3%, hot air NO, superheated steam 400° C., 0.2 m/sec.

As to `OO` [hydrogen peroxide], the “remaining amount of the hydrogen peroxide” value in series [1] was 0.012 ppm. Besides, the figures for the sterilizing power with BaciLLus subtiLis [2] (inner surface of the preform) and with BaciLLus subtiLis [2] (outer surface of the preform) were 4.2 D and 5.3 D, respectively. For the same molecule, the “sterilizing effect A. nig” value in the series on AspergiLLus niger [3] (setting [8]) and with AspergiLLus niger [3] (setting [9]) was “More than 6.0D” in each case. The “sterilizing effect B. sub.” value in the series on BaciLLus subtiLis [4] (setting [8]) was 3.0D; in the series on BaciLLus subtiLis [4] (setting [9]), 3.1D. The “Sterilizing Effect” value was “X (the other cases are shown with [x] (not good))” in the series on BaciLLus subtiLis [5] (hydrogen peroxide water as in Example 1, then superheated steam 180° C., 10 sec.); “◯ ([∘] (good) in the case where the D-value with respect to BaciLLus subtiLis is not less than 6)” in the series with BaciLLus subtiLis [5] (hydrogen peroxide water as in Example 1, then superheated steam 250° C., 6 sec.); “◯ ([∘] (good) in the case where the D-value with respect to BaciLLus subtiLis is not less than 6)” with BaciLLus subtiLis [5] (hydrogen peroxide water as in Example 1, then superheated steam 350° C., 4 sec.); “◯ ([∘] (good) in the case where the D-value with respect to BaciLLus subtiLis is not less than 6)” with BaciLLus subtiLis [5] (hydrogen peroxide water as in Example 1, then superheated steam 450° C., 3 sec.); “◯ ([∘] (good) in the case where the D-value with respect to BaciLLus subtiLis is not less than 6)” with BaciLLus subtiLis [5] (hydrogen peroxide water as in Example 1, then superheated steam 550° C., 3 sec.). The “sterilization effect A. niger” value in the series on AspergiLLus niger [6] (setting [10]) was 6.0D. In addition, the “sterilizing effect with respect to the A. niger” value with AspergiLLus niger [6] (superheated steam added with hydrogen peroxide, regardless of the preheating by hot air (summary of Table 4)) was “more than 6.0 D”. The “sterilization effect B. sub.” value in the series with BaciLLus subtiLis [7] (hydrogen peroxide 3%, hot air 100° C., superheated steam 200° C., 0.2 m/sec.) is on record as 5.3D; with BaciLLus subtiLis [7] (hydrogen peroxide 3%, hot air 100° C., superheated steam 400° C., 0.2 m/sec.) it was 6.0D; in the series on BaciLLus subtiLis [7] (setting [10]) it was 4.0D; in the series with BaciLLus subtiLis [7] (hydrogen peroxide 10%, hot air 80° C., superheated steam 400° C., 0.2 m/sec.), 6.0D; in the series with BaciLLus subtiLis [7] (hydrogen peroxide 10%, hot air NO, superheated steam 400° C., 0.5 m/sec.), 5.5D. Moreover, in the series on BaciLLus subtiLis [7] (preheating performed and superheated steam added with hydrogen peroxide blasted (summary of Table 4)), the “sterilizing effect with respect to the B.sub” value is on record as “more than 6.0 D”.
